# According to the supplement of paper PMC10307832:
# Tests used:
# Test in all cases: relative viability (nuclei count vs DMSO), 5 days (fraction); higher = more cells survive
# [1] = compound: CN(C/C=C/C1=CC=C(C=C1)Cl)CC2=CC=CC=C2N(CCO)S(=O)(=O)C3=CC=C(C=C3)OC [KN-93] + C[C@@H](Oc1cc(-c2cnn(C3CCNCC3)c2)cnc1N)c1c(Cl)ccc(F)c1Cl [Crizotinib] (partner 1 µM)
# In short: (§1)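 Nuclei were stained with Hoechst during a one-step fixation (final 0.05% Triton X-100, 1% formaldehyde, 1 ug/ml Hoechst) carried out 5 days after dosing, then counted on 4× images. The cells, lung cancer lines in 1536-well plates, had been dosed by pin tool the day after seeding with one drug alone or a fixed anchor-drug dose plus five library-drug doses (not always all listed) in √10 steps. Relative viability is the nuclei count in treated wells divided by that in vehicle wells, and each value is the median of duplicate plates.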
# [2] = compound: CN(C/C=C/C1=CC=C(C=C1)Cl)CC2=CC=CC=C2N(CCO)S(=O)(=O)C3=CC=C(C=C3)OC [KN-93] + Cc1nc(NC(=O)N2CCC[C@H]2C(N)=O)sc1-c1ccnc(C(C)(C)C(F)(F)F)c1 [Alpelisib] (partner 2 µM)
# In short: as §1
# [3] = compound: CN(C/C=C/C1=CC=C(C=C1)Cl)CC2=CC=CC=C2N(CCO)S(=O)(=O)C3=CC=C(C=C3)OC [KN-93] + C[C@]1(O)C[C@@H](c2nc(-c3ccc4ccc(-c5ccccc5)nc4c3)c3c(N)nccn32)C1 [Linsitinib] (partner 1 µM)
# In short: as §1
# [4] = compound: CN(C/C=C/C1=CC=C(C=C1)Cl)CC2=CC=CC=C2N(CCO)S(=O)(=O)C3=CC=C(C=C3)OC [KN-93] + CS(=O)(=O)N1CCN(Cc2cc3nc(-c4cccc5[nH]ncc45)nc(N4CCOCC4)c3s2)CC1 [Pictilisib] (partner 1 µM)
# In short: as §1
# [5] = compound: CN(C/C=C/C1=CC=C(C=C1)Cl)CC2=CC=CC=C2N(CCO)S(=O)(=O)C3=CC=C(C=C3)OC [KN-93] + CC(C)C[C@H](NC(=O)[C@H](Cc1ccccc1)NC(=O)c1cnccn1)B(O)O [Bortezomib] (partner 0.002 µM)
# In short: as §1
Cell Line,relative viability ([1]; first compound 0.08 µM),relative viability ([1]; first compound 0.253 µM),relative viability ([1]; first compound 2.53 µM),relative viability ([1]; first compound 8 µM),relative viability ([2]; first compound 0.08 µM),relative viability ([2]; first compound 0.253 µM),relative viability ([2]; first compound 2.53 µM),relative viability ([2]; first compound 8 µM),relative viability ([3]; first compound 0.08 µM),relative viability ([3]; first compound 0.253 µM),relative viability ([3]; first compound 2.53 µM),relative viability ([3]; first compound 8 µM),relative viability ([4]; first compound 0.08 µM),relative viability ([4]; first compound 0.253 µM),relative viability ([4]; first compound 2.53 µM),relative viability ([4]; first compound 8 µM),relative viability ([5]; first compound 0.08 µM),relative viability ([5]; first compound 0.253 µM),relative viability ([5]; first compound 2.53 µM),relative viability ([5]; first compound 8 µM)
LOU-NH91,0.746,0.716,0.75,0.703,0.716,0.647,0.756,0.64,0.926,0.856,0.931,0.791,0.513,0.422,0.568,0.489,0.534,0.456,0.48,0.392
LU99A,0.529,0.703,0.566,0.504,0.525,0.636,0.557,0.39,0.535,0.541,0.497,0.461,0.302,0.366,0.32,0.308,1.08,1.28,1.33,0.93
LXF-289,0.782,0.913,0.825,0.532,0.974,1.11,1.11,0.705,0.963,1,0.964,0.652,0.724,0.891,0.825,0.559,0.853,1.12,1.12,0.833
NCI-H358,0.565,0.568,0.519,0.426,0.843,0.992,0.72,0.319,0.631,0.81,0.634,0.353,0.39,0.381,0.327,0.28,–,–,–,–
NCI-H1395,–,–,–,–,1.16,1.1,1.05,0.506,1.66,1.13,1.07,0.427,0.654,0.682,1.02,0.477,–,–,–,–
NCI-H1650,0.874,1.01,1.15,0.547,–,–,–,–,–,–,–,–,0.527,0.537,0.582,0.239,0.218,0.196,0.208,0.203
NCI-H1793,–,–,–,–,–,0.851,0.624,0.542,–,1.18,0.925,0.673,–,0.334,0.382,0.267,–,–,–,–
NCI-H1944,1.24,1.24,1.18,0.953,0.832,0.761,0.931,0.754,1.29,1.21,1.11,1.02,0.372,0.292,0.332,0.34,–,–,–,–
NCI-H2170,1.13,1.66,1.42,0.931,0.782,0.876,0.928,0.65,–,–,–,–,0.303,0.266,0.319,0.255,–,–,–,–
SK-MES-1,1.05,0.979,1.27,0.8,0.737,0.977,0.864,0.862,1.06,1.05,1.12,1.02,0.332,0.327,0.419,0.253,–,–,–,–
